# Test system: Swine Kidney Dehydropeptidase-I (DHP-I)
# Experiment: Stability of test compounds against DHP-I by HPLC
# Format: in vitro ADME
# Experimental: The swine kidney (8 kg) was homogenized and an enzyme protein was allowed to precipitate. After a connective lipid was removed with acetone, the resultant material was made soluble by treatment with butanol and purified in the order by the ammonium sulfate fraction method, thereby producing DPH-I enzyme from a 75% ammonium sulfate fraction.
# The DHP-I enzyme was then adjusted to give an enzyme concentration of 25 mg/10 ml (phosphate buffer, pH 7.1), and divided into 1 ml portions. The portions were frozen and stored at -40° C. or less until use.
# As a test compound was used the compound (15) obtained in Example 6 that follows.
# The test compounds was adjusted in situ to give the concentration of […] with a 50 mM sodium phosphate buffer solution (pH=7.1).
# As control compounds were employed glycyl dehydrophenylalanine (Gl-dh-Ph) and imipenem, and they were adjusted in situ each to give the concentration of 177 μM with the same sodium phosphate buffer solution.
# The test compound according to the present invention and the control compounds have been treated in substantially the same manner as (1) above. The incubation, however, was conducted at 37° C. for 4.5 hours or for 24 hours. A degree of the hydrolysis of the compounds each after the test periods of time was measured by the HPLC method.
compound,measurement,setting,value
C[C@@H](O)[C@H]1C(=O)N2C(C(=O)O)=C(SCCN=CN)C[C@H]12 [Imipenem],Degree of hydrolysis by DHP-I,"37° C. 4.5 hours, substrate concentration 100 μM, HPLC",77.6 µM
same,Degree of hydrolysis by DHP-I (in words),"after 24 hours at 37° C., footnote * of Table 3",imipenem has been decomposed and nothing remained was detected

# From US4990613A, “(1R,5S,6S)-2-[(6,7-dih ydro-5H-pyrazolo[1,2-a][1,2,4]triazolium-6-yl)]thio-6-[R-1-hydroxyethyl]- 1-methyl-carbapenem-3-carboxylate and intermediate therefor” (Lederle (Japan), Ltd., priority 1987, dated 1991)
